The source of these data is US20230064983A1 (priority 2020, published 2023).

The target of assay [1] is Ba/F3-EGFR-D770_N771insSVD cells (Homo sapiens, UniProt P00533, DUP768-770, cells depend on it). Kind of assay: Ba/F3 cell survival assay, EGFR D770_N771insSVD. Format: cell-based. As to conditions: Cell Titer-Glo, 48 h, without IL-3; Table 4; read-out: BA/F3 (insSVD) IC50. On the technique in general: Cellular ATP, detected with luciferase, serves as a proxy for viable cell number.

Assay [2] has as its target T1, Bub1 (Homo sapiens, UniProt O43683).
T1 construct: catalytic domain of human Bub1 (amino acids 704-1085); His6 (N); made in house; host or cells: insect cells (Hi5)
Kind of assay: Bub1 high ATP kinase assay (TR-FRET). It is filed as biochemical. Particulars: Bub1 high ATP (2 mM) IC50, TR-FRET, 2 mM ATP; Table 3. Summed up:
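Enzyme was His6-tagged human Bub1 catalytic domain (aa 704-1085) from Hi5 insect cells, typically about 200 ng/ml, with a biotinylated peptide substrate at high ATP. Reaction ran 60 min at 22 °C, then was stopped with EDTA. Phosphopeptide was detected by TR-FRET (anti-phosphoserine antibody, Eu-labelled anti-mouse IgG, streptavidin-XL665), read as the 665/620 nm emission ratio.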
In general terms: TR-FRET usually uses a lanthanide donor and a delayed reading to cut background.

The target in assay [3] is T2, EGFR with insertion SVD between D770 and N771 (mutEGFR D770_N771insSVD) (Homo sapiens, UniProt P00533, DUP768-770).
T2 construct: amino acids R669 to A1210; made in house; host or cells: Sf9 insect cells (baculovirus)
T2 sequence (P00533 other isoform, or with tags, fused parts or gaps DUP768-770): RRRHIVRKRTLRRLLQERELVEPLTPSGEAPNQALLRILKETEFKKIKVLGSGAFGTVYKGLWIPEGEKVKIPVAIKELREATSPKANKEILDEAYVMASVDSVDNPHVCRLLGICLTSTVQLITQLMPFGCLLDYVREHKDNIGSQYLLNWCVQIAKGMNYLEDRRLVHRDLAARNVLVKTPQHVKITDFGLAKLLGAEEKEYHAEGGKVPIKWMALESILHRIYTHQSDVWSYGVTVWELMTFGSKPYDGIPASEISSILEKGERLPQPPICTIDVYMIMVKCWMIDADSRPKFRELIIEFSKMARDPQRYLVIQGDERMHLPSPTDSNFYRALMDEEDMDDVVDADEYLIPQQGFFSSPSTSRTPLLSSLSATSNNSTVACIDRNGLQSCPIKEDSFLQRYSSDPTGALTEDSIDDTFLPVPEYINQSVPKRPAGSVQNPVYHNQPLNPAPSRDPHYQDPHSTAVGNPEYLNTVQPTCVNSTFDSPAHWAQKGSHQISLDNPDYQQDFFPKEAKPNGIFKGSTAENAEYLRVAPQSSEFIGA
Kind of assay: Exon20-Mutant-EGFR(D770_N771insSVD) kinase assay (TR-FRET). It is filed as biochemical. As to conditions: 2 mM ATP, Table 2.

Assay [4] has as its target Ba/F3-EGFR-WT cells (Homo sapiens, UniProt P00533). Kind of assay: Ba/F3 cell survival assay, wild type EGFR. Particulars: Cell Titer-Glo, 48 h, with 10 ng/mL EGF; Table 4; read-out: BA/F3 (wild type) IC50. Format: cell-based.

Values joined by “and” are separate entries in the source; they are usually repeats but may differ in a detail not shown here. Equal values may be shown once.

Chain of Ba/F3-EGFR-D770_N771insSVD cells (P00533 with tags, fused parts or gaps DUP768-770): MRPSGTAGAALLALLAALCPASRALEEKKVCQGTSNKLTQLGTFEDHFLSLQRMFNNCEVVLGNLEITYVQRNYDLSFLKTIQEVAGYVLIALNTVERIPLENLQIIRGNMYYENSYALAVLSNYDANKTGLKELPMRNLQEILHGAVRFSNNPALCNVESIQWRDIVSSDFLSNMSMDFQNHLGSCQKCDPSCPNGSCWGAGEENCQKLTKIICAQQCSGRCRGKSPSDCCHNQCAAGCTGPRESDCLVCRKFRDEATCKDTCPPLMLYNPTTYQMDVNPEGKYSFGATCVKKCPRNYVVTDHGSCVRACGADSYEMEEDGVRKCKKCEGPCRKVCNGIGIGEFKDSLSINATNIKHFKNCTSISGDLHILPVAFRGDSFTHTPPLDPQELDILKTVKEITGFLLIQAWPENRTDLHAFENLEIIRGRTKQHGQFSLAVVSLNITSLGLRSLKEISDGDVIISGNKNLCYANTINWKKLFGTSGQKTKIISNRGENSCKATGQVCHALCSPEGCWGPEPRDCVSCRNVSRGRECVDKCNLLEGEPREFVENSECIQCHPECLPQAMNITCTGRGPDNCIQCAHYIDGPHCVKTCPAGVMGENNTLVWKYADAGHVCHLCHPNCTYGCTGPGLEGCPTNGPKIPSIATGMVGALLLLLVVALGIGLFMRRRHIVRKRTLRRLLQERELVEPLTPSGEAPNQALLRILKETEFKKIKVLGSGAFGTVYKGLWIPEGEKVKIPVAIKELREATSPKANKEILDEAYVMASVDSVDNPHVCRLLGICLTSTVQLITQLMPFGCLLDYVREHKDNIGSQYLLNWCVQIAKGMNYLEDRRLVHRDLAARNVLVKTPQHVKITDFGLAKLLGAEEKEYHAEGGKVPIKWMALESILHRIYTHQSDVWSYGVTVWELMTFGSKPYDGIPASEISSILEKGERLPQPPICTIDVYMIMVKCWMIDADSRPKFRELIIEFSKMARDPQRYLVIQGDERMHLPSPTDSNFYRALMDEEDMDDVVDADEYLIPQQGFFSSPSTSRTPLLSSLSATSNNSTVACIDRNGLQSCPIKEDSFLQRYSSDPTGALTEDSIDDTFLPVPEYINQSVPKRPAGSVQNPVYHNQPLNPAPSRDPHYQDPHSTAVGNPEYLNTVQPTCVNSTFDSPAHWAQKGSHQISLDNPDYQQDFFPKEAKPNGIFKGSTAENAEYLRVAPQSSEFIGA
T1 sequence (O43683 704-1085): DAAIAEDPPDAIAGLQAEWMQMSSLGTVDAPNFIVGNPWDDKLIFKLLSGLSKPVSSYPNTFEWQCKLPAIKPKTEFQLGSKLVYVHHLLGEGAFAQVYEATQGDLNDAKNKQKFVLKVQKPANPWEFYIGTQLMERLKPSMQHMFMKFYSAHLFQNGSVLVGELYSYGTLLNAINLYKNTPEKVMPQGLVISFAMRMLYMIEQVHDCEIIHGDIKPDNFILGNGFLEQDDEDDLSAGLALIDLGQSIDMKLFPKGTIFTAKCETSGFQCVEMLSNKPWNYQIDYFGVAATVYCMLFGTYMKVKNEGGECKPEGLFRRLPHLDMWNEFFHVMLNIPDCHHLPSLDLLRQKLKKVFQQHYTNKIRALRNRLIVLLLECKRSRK
Chain of Ba/F3-EGFR-WT cells (P00533 whole entry, looked up, change not shown): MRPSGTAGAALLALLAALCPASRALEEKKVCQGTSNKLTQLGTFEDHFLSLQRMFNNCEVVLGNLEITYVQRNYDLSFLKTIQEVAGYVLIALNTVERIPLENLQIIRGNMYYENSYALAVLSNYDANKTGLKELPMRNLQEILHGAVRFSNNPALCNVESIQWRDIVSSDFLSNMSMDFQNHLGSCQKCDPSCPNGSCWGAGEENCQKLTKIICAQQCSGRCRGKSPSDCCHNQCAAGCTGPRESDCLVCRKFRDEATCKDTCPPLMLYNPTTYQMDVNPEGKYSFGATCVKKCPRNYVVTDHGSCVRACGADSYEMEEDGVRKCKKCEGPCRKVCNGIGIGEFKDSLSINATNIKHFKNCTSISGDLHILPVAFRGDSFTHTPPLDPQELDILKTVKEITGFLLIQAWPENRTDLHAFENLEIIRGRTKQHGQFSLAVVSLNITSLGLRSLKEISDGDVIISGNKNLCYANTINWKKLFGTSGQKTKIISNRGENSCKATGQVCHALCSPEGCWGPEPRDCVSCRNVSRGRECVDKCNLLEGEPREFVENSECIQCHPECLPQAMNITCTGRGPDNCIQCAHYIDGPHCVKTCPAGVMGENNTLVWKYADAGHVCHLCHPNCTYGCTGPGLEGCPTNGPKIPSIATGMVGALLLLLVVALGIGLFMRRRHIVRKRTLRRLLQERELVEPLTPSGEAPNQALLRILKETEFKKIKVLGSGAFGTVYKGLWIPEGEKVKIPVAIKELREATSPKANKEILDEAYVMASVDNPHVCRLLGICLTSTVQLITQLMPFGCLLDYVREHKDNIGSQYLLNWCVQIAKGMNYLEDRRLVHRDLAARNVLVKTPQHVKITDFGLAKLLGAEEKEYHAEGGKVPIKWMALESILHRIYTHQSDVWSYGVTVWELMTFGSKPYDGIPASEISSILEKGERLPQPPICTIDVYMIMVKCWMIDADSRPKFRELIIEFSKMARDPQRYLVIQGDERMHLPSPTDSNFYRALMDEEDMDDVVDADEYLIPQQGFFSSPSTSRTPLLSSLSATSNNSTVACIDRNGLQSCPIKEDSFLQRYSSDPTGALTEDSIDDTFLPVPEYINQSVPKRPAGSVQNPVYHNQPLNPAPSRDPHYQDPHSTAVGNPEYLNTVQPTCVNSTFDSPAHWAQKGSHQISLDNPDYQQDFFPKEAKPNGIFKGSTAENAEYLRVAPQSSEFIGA

As to `COc1c(Cl)cccc1Nc1c(-c2ccncc2OCC2COC(C)(C)CO2)[nH]c2c1C(=O)NC1(CCC1)C2` (stereo not shown) [Example 129, 3′-(3-chloro-2-methoxyanilino)-2′-{3-[(5,5-dimethyl-1,4-dioxan-2-yl)methoxy]pyridin-4-yl}-1′,7′-dihydrospiro[cyclobutane-1,6′-pyrrolo[3,2-c]pyridin]-4′(5′H)-one], the GI50 in assay [1] came to 14 nM; in assay [4], 293 nM. Besides, in assay [2], the IC50 (in general, the point on the concentration scale where inhibition reaches its midpoint) was determined as 1310 nM. The “mutEGFR (D770_N771insSVD) kinase assay IC50” value (“mutEGFR” below) in assay [3] is 0.257 nM.

Regarding `COc1c(Cl)cccc1Nc1c(-c2ccncc2OCCC2CCCCO2)[nH]c2c1C(=O)N[C@H](C)C2` (stereo partly drawn) [Example 86, (6R)-3-(3-chloro-2-methoxy-anilino)-6-methyl-2-[3-(2-tetrahydropyran-2-ylethoxy)-4-pyridyl]-1,5,6,7-tetrahydropyrrolo[3,2-c]pyridin-4-one], the GI50 in assay [1] amounted to 19.3 nM; in assay [4] it was 480 nM. This molecule also registered an IC50 in assay [2] of 2400 nM. Moreover, the “mutEGFR” value in assay [3] worked out at 0.261 nM.

Regarding `COc1c(Cl)cccc1Nc1c(-c2ccncc2OCC2(C)CCO2)[nH]c2c1C(=O)NCC2CCO` (single isomer, unassigned) [Example 20, 3-(3-chloro-2-methoxyanilino)-7-(2-hydroxyethyl)-2-{3-[(2-methyloxetan-2-yl)methoxy]pyridin-4-yl}-1,5,6,7-tetrahydro-4H-pyrrolo[3,2-c]pyridin-4-one], the GI50 in assay [1] was 122 nM; in assay [4], 1170 nM. In assay [2], it took 17200 nM to reach half-maximal inhibition (IC50). Moreover, in assay [3], the “mutEGFR” value was determined as 0.316 nM.

For the molecule `Cc1c(Cl)cccc1Nc1c(-c2ccncc2OC[C@@H]2COCCO2)[nH]c2c1C(=O)N[C@H](C)C2` [Example 103, (6R)-3-(3-chloro-2-methylanilino)-2-(3-{[(2S)-1,4-dioxan-2-yl]methoxy}pyridin-4-yl)-6-methyl-1,5,6,7-tetrahydro-4H-pyrrolo[3,2-c]pyridin-4-one], the GI50 in assay [1] came out at 32.2 nM; in assay [4] it was 529 nM. This molecule came in with an IC50 in assay [2] of 1650 nM. Besides, in assay [3], the “mutEGFR” value turned out to be 0.184 nM.

In the case of `COc1c(Cl)cccc1Nc1c(-c2ccncc2OCC(C)OC)[nH]c2c1C(=O)N[C@H](C)C2` (single isomer, unassigned) [Example 82], the GI50 in assay [1] worked out at 13.9 nM; in assay [4], 248 nM. In assay [2], this molecule came in with a concentration for half-maximal inhibition (IC50) of 2710 nM. In assay [3], the “mutEGFR” value is 0.143 nM.

For `COc1c(Cl)cccc1Nc1c(-c2ccncc2OCCC2CCCCO2)[nH]c2c1C(=O)NC1(CCC1)C2` (stereo not shown) [Example 128, 3-(3-chloro-2-methoxy-anilino)-2-[3-(2-tetrahydropyran-2-ylethoxy)-4-pyridyl]spiro[5,7-dihydro-1H-pyrrolo[3,2-c]pyridine-6,1′-cyclobutane]-4-one], the figures for the GI50 in assay [1] and in assay [4] were 38.4 nM and 942 nM, respectively. The same molecule had an IC50 in assay [2] of 726 nM. Further, the “mutEGFR” value in assay [3] worked out at 1.06 nM.

`COc1c(F)cccc1Nc1c(-c2ccncc2OC[C@@H]2CCCO2)[nH]c2c1C(=O)NC(C)C2` (mixture of isomers) [Example 8, 3-(3-fluoro-2-methoxyanilino)-6-methyl-2-(3-{[(2S)-oxolan-2-yl]methoxy}pyridin-4-yl)-1,5,6,7-tetrahydro-4H-pyrrolo[3,2-c]pyridin-4-one]: the GI50 in assay [1] was determined as 73.3 nM; in assay [4], 623 nM. For the same molecule, the IC50 in assay [2] was 12800 nM and 9720 nM and > 20000 nM. Moreover, the “mutEGFR” value in assay [3] came out at 0.246 nM.

On to `Cc1c(Cl)cccc1Nc1c(-c2ccncc2OCC2COCCO2)[nH]c2c1C(=O)NCC2C` (single isomer, unassigned) [Example 69, 3-(3-chloro-2-methyl-anilino)-2-[3-(1,4-dioxan-2-ylmethoxy)-4-pyridyl]-7-methyl-1,5,6,7-tetrahydropyrrolo[3,2-c]pyridin-4-one], for which the results for the GI50 in assay [1] and in assay [4] were 72.4 nM and 2180 nM, respectively. In assay [2], this molecule came in with an IC50 of 1730 nM. Besides, the “mutEGFR” value in assay [3] amounted to 0.269 nM.

`COc1c(Cl)cccc1Nc1c(-c2ccncc2OCC2COCCO2)[nH]c2c1C(=O)NCC2C` (single isomer, unassigned) [Example 36, 3-(3-chloro-2-methoxy-anilino)-2-[3-(1,4-dioxan-2-ylmethoxy)-4-pyridyl]-7-methyl-1,5,6,7-tetrahydropyrrolo[3,2-c]pyridin-4-one]: the GI50 in assay [1] was 75.3 nM; in assay [4] it was 963 nM. For the same molecule, in assay [2], the IC50 was 4900 nM. Moreover, the “mutEGFR” value in assay [3] stood at 0.331 nM.

For `COc1c(Cl)cccc1Nc1c(-c2ccncc2OCC2CCCCO2)[nH]c2c1C(=O)NCC2C` (stereo not shown) [Example 44, 3-(3-chloro-2-methoxy-anilino)-7-methyl-2-[3-(tetrahydropyran-2-ylmethoxy)-4-pyridyl]-1,5,6,7-tetrahydropyrrolo[3,2-c]pyridin-4-one], the GI50 in assay [1] was found to be 40.5 nM; in assay [4], 594 nM. It took 6450 nM to reach half-maximal inhibition in assay [2] (IC50). In addition, the “mutEGFR” value in assay [3] is 0.195 nM.

Regarding `COCC(C)Oc1cnccc1-c1[nH]c2c(c1Nc1cccc(Cl)c1C)C(=O)N[C@H](C)C2` (stereo partly drawn) [Example 105, (6R)-3-(3-chloro-2-methylanilino)-2-{3-[(1-methoxypropan-2-yl)oxy]pyridin-4-yl}-6-methyl-1,5,6,7-tetrahydro-4H-pyrrolo[3,2-c]pyridin-4-one], the figures for the GI50 in assay [1] and in assay [4] were 44.7 nM and 884 nM, respectively. Half-maximal inhibition in assay [2] (IC50) was put at 3700 nM. Further, the “mutEGFR” value in assay [3] was found to be 0.324 nM.

On to `COc1c(Cl)cccc1Nc1c(-c2ccncc2OCC(C)OC)[nH]c2c1C(=O)N[C@H](C)C2` (mixture of isomers) [Example 80, (6R)-3-(3-chloro-2-methoxy-anilino)-2-[3-(2-methoxypropoxy)-4-pyridyl]-6-methyl-1,5,6,7-tetrahydropyrrolo[3,2-c]pyridin-4-one], for which the GI50 is 19.9 nM in assay [1] and 628 nM in assay [4]. In addition, in assay [2], inhibition was half-maximal at 2670 nM (IC50). Also, the “mutEGFR” value in assay [3] was 0.131 nM.

On to `COc1c(Cl)cccc1Nc1c(-c2ccncc2OCC2COC(C)(C)CO2)[nH]c2c1C(=O)N[C@H](C)C2` (mixture of isomers) [Example 77, (6R)-3-(3-chloro-2-methoxy-anilino)-2-{3-[(5,5-dimethyl-1,4-dioxan-2-yl)methoxy]-4-pyridyl}-6-methyl-1,5,6,7-tetrahydropyrrolo[3,2-c]pyridin-4-one], for which the GI50 was 15.3 nM in assay [1] and 3200 nM in assay [4]. This molecule yielded an IC50 in assay [2] greater than 20000 nM. The “mutEGFR” value in assay [3] was found to be 0.15 nM.

Regarding `COCC(C)Oc1cnccc1-c1[nH]c2c(c1Nc1cccc(Cl)c1OC)C(=O)N[C@H](C)C2` (single isomer, unassigned) [Example 42], the GI50 in assay [1] amounted to 15.3 nM; in assay [4], 531 nM. This molecule came in with an IC50 in assay [2] of 8810 nM. For the same molecule, the “mutEGFR” value in assay [3] came to 0.213 nM.

As for `COc1c(Cl)cccc1Nc1c(-c2ccncc2OC[C@@H]2CCO2)[nH]c2c1C(=O)N[C@H](C)C2` [Example 6, (6R)-3-(3-chloro-2-methoxyanilino)-6-methyl-2-(3-{[(2S)-oxetan-2-yl]methoxy}pyridin-4-yl)-1,5,6,7-tetrahydro-4H-pyrrolo[3,2-c]pyridin-4-one], the GI50 in assay [1] was 86.4 nM; in assay [4], 623 nM. This molecule came in with an IC50 in assay [2] of 10200 nM. For the same molecule, the “mutEGFR” value in assay [3] was 0.217 nM.

As for `COc1c(Cl)cccc1Nc1c(-c2ccncc2OC[C@@H]2CCCO2)[nH]c2c1C(=O)N[C@@H](C)C2` (single isomer, unassigned) [Example 4], the figures for the GI50 in assay [1] and in assay [4] were 95.3 nM and 883 nM, respectively. This molecule had an IC50 in assay [2] of 3010 nM. In addition, in assay [3], the “mutEGFR” value came to 0.113 nM.

On to `COc1c(Cl)cccc1Nc1c(-c2ccncc2OCC2OCCCC2(F)F)[nH]c2c1C(=O)N[C@H](C)C2` (mixture of isomers) [Example 74, (6R)-3-(3-chloro-2-methoxy-anilino)-2-{3-[(3,3-difluorotetrahydropyran-2-yl)methoxy]-4-pyridyl}-6-methyl-1,5,6,7-tetrahydropyrrolo[3,2-c]pyridin-4-one], for which the values for the GI50 in assay [1] and in assay [4] were 14 nM and 457 nM, respectively. The molecule also registered an IC50 in assay [2] greater than 20000 nM. Also, the “mutEGFR” value in assay [3] was 0.242 nM.

For `COc1c(Cl)cccc1Nc1c(-c2ccncc2OCC2COCCO2)[nH]c2c1C(=O)N[C@@H]1CCC[C@H]21` (single isomer, unassigned) [Example 54], the GI50 in assay [1] turned out to be 42.4 nM; in assay [4], 675 nM. The molecule further showed an IC50 in assay [2] of 6190 nM. Further, the “mutEGFR” value in assay [3] came to 0.198 nM.

Turning to `COc1c(F)cccc1Nc1c(-c2ccncc2OC[C@@H]2CCCO2)[nH]c2c1C(=O)NC(C)C2` (single isomer, unassigned) [Example 10], the values for the GI50 in assay [1] and in assay [4] were 31.7 nM and 382 nM, respectively. This molecule also showed a 50% inhibitory concentration (IC50) in assay [2] greater than 20000 nM. For the same molecule, the “mutEGFR” value in assay [3] was found to be 0.0957 nM.
